Among the data in patent US7091202B2, “4-arylspirocycloalkyl-2-aminopyrimidine carboxamide KCNQ potassium channel modulators” (Bristol-Myers Squibb Company, priority 2004, dated 2006) are EC50 values, retold here.

The target in the assay is T1, hQ23 (HEK-293 cell line stably transfected with one of the members of the KCNQ family) (Homo sapiens, UniProt O43525+O43526).
T1 construct: expressed in transfected cells; host or cells: HEK-293, stably transfected
The assay is described as follows: Thallium flux assay for KCNQ channel blockers (FLIPR, BTC dye). The conditions noted are these: thallium flux. Type of assay: cell-based. As for the experimental part: Thallium Flux Assay for KCNQ channel blockers. Approximately 20,000 cells/well of an HEK-293 cell line stably transfected with one of the members of the KCNQ family were plated into clear-bottom, black-walled, poly-D-lysine coated, 384 well assay plates in 20 μl/well of low chloride plating medium. Low chloride plating medium was composed of the following: sodium gluconate, 109 mM; potassium gluconate, 5.4 mM; hemi-calcium gluconate, 3.6 mM; magnesium sulfate, 0.8 mM; sodium bicarbonate, 26.2 mM; sodium phosphate monobasic, 1.2 mM; glutamine, 2 mM; glucose, 5 mM; HEPES (pH 7.3) 10 mM, 10× concentration of vitamins (Gibco/LifeTechnologies catalog #11120-052) and 1× concentration of amino acids (Gibco/LifeTechnologies catalog #11130-051).
Following overnight incubation in a 5% CO2 incubator at 37° C., the cells in the plates were loaded with 20 μl/well of a dye loading solution containing the acetomethoxy ester of the thallium-sensitive fluorescent dye BTC, BTC-AM (2 μM) and pluronic acid (0.02% w/v) in chloride free assay buffer. Chloride free assay buffer was composed of the following: sodium gluconate, 140 mM; potassium gluconate, 2.5 mM; hemi-calcium gluconate, 6 mM; hemi-magnesium gluconate, 2 mM; glucose, 5 mM; HEPES (pH 7.3), 10 mM.
Following incubation in the dye loading solution for from 45–90 min at room temperature, the dye loading solution was removed by aspiration and replaced with 40 μl/well of chloride free assay buffer.
Prior to addition to cell plates, test compound and standard compounds were dissolved in DMSO to 3 mM concentration. Compounds were then diluted from the 3 mM stock to 100-fold over the final assay concentration in DMSO. Finally, compounds in DMSO were diluted from 100-fold over the final assay concentration to 5-fold over the final assay concentration in chloride free assay buffer.
Ten μl/well of compounds at 5-fold over the final assay concentration were then added to the cell plates. This represents a 1:5 dilution, yielding the final test concentration. The wells used for test compounds were A1–P20. Wells A21–P22 contained a standard ‘blocker’ and a fully efficacious concentration (positive control). Wells A23–P24 contained chloride free assay buffer containing 1% DMSO (negative control).
Following addition of test compounds, the plates were loaded onto the Molecular Devices FLIPR. The 488 nm line of the argon laser was used to excite the BTC and the emission filter was a 540(+/−30) nm. Images were collected at 1 Hz. Ten seconds of baseline were collected and then the FLIPR was used to add 13 μl/well of a stimulus buffer composed of Tl2SO4, 25 mM; sodium gluconate, 30 mM; potassium sulfate, 50 mM; hemi-calcium gluconate, 6 mM; hemi-magnesium gluconate, 2 mM; glucose, 5 mM; HEPES (pH 7.3), 10 mM in chloride free assay buffer. Images were collected for an additional 60 seconds.
For data analysis, the amplitude of the average of the negative controls was subtracted from all wells. The amplitudes of the test compounds were then compared to the value of four standard deviations of the negative control wells. The lowest concentration of a test compound sufficient to generate a signal amplitude greater than or equal to four standard deviations from the amplitude of the negative controls was defined as the minimal active concentration.
For generating IC50 values, compounds were serially diluted in 1:3 volume increments to produce a 10 point concentration series. IC50 values were calculated by fitting the resulting amplitudes to a single-site logistic equation. IC50 was defined as the concentration of test compound required to yield 50% of the response of the positive control.

T1 sequence (O43526 whole entry): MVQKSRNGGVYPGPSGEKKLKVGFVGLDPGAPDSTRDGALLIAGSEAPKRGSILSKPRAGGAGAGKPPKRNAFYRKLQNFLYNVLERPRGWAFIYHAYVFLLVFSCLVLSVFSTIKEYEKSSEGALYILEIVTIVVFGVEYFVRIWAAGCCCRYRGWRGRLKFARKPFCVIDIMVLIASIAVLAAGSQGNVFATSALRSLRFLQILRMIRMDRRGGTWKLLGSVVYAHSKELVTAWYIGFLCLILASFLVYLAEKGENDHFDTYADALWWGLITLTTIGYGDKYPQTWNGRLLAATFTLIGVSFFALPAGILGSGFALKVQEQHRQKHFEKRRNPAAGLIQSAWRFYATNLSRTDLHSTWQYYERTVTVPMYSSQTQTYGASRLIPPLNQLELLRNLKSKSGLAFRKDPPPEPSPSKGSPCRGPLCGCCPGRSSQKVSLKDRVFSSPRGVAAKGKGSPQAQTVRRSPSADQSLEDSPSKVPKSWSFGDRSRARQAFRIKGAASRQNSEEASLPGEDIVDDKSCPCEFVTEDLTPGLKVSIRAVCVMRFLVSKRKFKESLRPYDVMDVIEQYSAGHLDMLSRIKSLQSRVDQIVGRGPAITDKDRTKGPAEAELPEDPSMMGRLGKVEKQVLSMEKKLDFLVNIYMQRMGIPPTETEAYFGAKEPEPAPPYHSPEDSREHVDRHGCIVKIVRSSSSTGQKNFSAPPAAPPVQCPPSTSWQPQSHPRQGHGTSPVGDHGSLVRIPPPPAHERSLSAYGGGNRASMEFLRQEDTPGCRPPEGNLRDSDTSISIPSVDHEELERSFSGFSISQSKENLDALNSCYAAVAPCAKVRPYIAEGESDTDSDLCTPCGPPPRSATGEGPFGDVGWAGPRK
T1 sequence (O43525 whole entry): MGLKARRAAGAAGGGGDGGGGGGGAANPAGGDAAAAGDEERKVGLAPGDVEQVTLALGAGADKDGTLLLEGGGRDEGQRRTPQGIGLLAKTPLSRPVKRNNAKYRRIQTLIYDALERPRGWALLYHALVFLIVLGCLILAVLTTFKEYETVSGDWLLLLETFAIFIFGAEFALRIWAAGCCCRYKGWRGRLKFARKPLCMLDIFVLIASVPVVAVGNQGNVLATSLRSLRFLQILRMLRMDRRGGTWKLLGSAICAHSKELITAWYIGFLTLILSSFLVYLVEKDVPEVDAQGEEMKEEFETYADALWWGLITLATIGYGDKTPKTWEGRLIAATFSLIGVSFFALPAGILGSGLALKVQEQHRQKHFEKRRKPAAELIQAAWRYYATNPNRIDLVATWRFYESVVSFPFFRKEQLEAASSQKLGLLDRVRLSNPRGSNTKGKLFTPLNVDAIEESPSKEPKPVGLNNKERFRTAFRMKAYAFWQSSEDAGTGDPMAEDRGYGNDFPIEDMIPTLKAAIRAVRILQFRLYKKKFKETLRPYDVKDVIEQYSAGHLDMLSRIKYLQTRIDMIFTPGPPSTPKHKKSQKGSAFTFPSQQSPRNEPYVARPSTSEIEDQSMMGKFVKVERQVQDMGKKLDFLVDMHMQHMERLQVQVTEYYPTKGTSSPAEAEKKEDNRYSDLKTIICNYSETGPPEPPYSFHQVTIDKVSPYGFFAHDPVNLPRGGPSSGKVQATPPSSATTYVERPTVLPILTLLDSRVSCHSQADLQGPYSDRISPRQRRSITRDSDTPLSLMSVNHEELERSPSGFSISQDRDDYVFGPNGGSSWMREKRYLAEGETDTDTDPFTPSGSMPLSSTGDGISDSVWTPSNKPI

A word on the EC50: it is the concentration giving half of the maximal effect. Read a low EC50 as higher potency in that assay. Consider `CC1CCC(Nc2ncc(C(=O)NC(C)c3ccc(F)cc3)c(C3(c4ccccc4)CC3)n2)CC1` (stereo not drawn) [Example 49, 5-pyrimidinecarboxamide, N-[1-(4-fluorophenyl)ethyl]-2-[(4-methylcyclohexyl)amino]-4-(1-phenylcyclopropyl)-], for which, where the note is “Table 2, HEK-293”, a half-maximal response (EC50) required 575 nM.

As for `CC1CCCN(c2ncc(C(=O)NC(C)c3ccc(F)cc3)c(C3(c4ccccc4)CC3)n2)C1` (stereo not drawn) [Example 50, 5-pyrimidinecarboxamide, N-[1-(4-fluorophenyl)ethyl]-2-(3-methyl-1-piperidinyl)-4-(1-phenylcyclopropyl)-], the response (Table 2, HEK-293) was half-maximal at 673 nM (EC50). The EC50 values of the last two compounds are within 1.5-fold of each other.

As to `CC1CCN(c2ncc(C(=O)NC(C)c3ccc(F)cc3)c(C3(c4ccccc4)CC3)n2)CC1` (stereo not drawn) [Example 51, 5-pyrimidinecarboxamide, N-[1-(4-fluorophenyl)ethyl]-2-(4-methyl-1-piperidinyl)-4-(1-phenylcyclopropyl)-], the EC50 (Table 2, HEK-293) was determined as 672 nM.

In the case of `CCC(C)Nc1ncc(C(=O)N(CC)CC)c(C2(c3ccc(Cl)cc3)CCC2)n1` (stereo not drawn) [Example 52, 5-pyrimidinecarboxamide, 4-[1-(4-chlorophenyl)cyclobutyl]-N,N-diethyl-2-[(1-methylpropyl)amino]-], for the setting “Table 3, HEK-293”, the EC50 is 211 nM.

For the compound `CCN(CC)C(=O)c1cnc(NCCN(C)C)nc1C1(c2ccc(Cl)cc2)CCC1` [Example 53, 5-pyrimidinecarboxamide, 4-[1-(4-chlorophenyl)cyclobutyl]-2-[[2-(dimethylamino)ethyl]amino]-N,N-diethyl-], the EC50 (Table 3, HEK-293) is 558 nM.

The compound `CN(C)CCNc1ncc(C(=O)N2CCc3ccccc3C2)c(C2(c3ccc(Cl)cc3)CCC2)n1` [Example 54, isoquinoline, 2-[[4-[1-(4-chlorophenyl)cyclobutyl]-2-[[2-(dimethylamino)ethyl]amino]-5-pyrimidinyl]carbonyl]-1,2,3,4-tetrahydro-] yielded an EC50 (Table 3, HEK-293) of 475 nM.

In turn, `CN(C)CCNc1ncc(C(=O)N(C)CCc2ccccc2)c(C2(c3ccc(Cl)cc3)CCC2)n1` [Example 55, 5-pyrimidinecarboxamide, 4-[1-(4-chlorophenyl)cyclobutyl]-2-[[2-(dimethylamino)ethyl]amino]-N-methyl-N-(2-phenylethyl)-] came in with an EC50 (Table 3, HEK-293) of 321 nM. The EC50 values of the last two compounds are within 1.5-fold of each other.

Regarding `O=C(NCc1ccc2c(c1)OCO2)c1cnc(N2CCCC2)nc1C1(c2ccc(Cl)cc2)CCC1` [Example 56, 5-pyrimidinecarboxamide, N-(1,3-benzodioxol-5-ylmethyl)-4-[1-(4-chlorophenyl)cyclobutyl]-2-(1-pyrrolidinyl)-], the half-maximal effective concentration (EC50) (Table 3, HEK-293) is 719 nM.

Compound `CN1CCN(c2ncc(C(=O)NCc3ccc4c(c3)OCO4)c(C3(c4ccc(Cl)cc4)CCC3)n2)CC1` [Example 57, 5-pyrimidinecarboxamide, N-(1,3-benzodioxol-5-ylmethyl)-4-[1-(4-chlorophenyl)cyclobutyl]-2-(4-methyl-1-piperazinyl)-] gave an EC50 (Table 3, HEK-293) of 745 nM. This EC50 and that of the compound before are within 1.5-fold of each other.

As to `CC1CCN(c2ncc(C(=O)NCc3ccc4c(c3)OCO4)c(C3(c4ccc(Cl)cc4)CCC3)n2)CC1` [Example 58, 5-pyrimidinecarboxamide, N-(1,3-benzodioxol-5-ylmethyl)-4-[1-(4-chlorophenyl)cyclobutyl]-2-(4-methyl-1-piperidinyl)-], under “Table 3, HEK-293”, the EC50 was determined as 90 nM.

`CCC(C)Nc1ncc(C(=O)NCc2ccc3c(c2)OCO3)c(C2(c3ccc(Cl)cc3)CCC2)n1` (stereo not drawn) [Example 59, 5-pyrimidinecarboxamide, N-(1,3-benzodioxol-5-ylmethyl)-4-[1-(4-chlorophenyl)cyclobutyl]-2-[(1-methylpropyl)amino]-] gave an EC50 (Table 3, HEK-293) of 405 nM.

As for `O=C(NCc1cccc2ccccc12)c1cnc(NC2CC2)nc1C1(c2ccc(Cl)cc2)CCC1` [Example 60, 5-pyrimidinecarboxamide, 4-[1-(4-chlorophenyl)cyclobutyl]-2-(cyclopropylamino)-N-(1-naphthalenylmethyl)-], under “Table 3, HEK-293”, the EC50 was found to be 614 nM.

`O=C(NCc1cccc2ccccc12)c1cnc(N2CCCC2)nc1C1(c2ccc(Cl)cc2)CCC1` [Example 61, 5-pyrimidinecarboxamide, 4-[1-(4-chlorophenyl)cyclobutyl]-N-(1-naphthalenylmethyl)-2-(1-pyrrolidinyl)-] returned an EC50 (Table 3, HEK-293) of 79 nM.

Take `CC1CCCN(c2ncc(C(=O)NCc3cccc4ccccc34)c(C3(c4ccc(Cl)cc4)CCC3)n2)C1` (stereo not drawn) [Example 62, 5-pyrimidinecarboxamide, 4-[1-(4-chlorophenyl)cyclobutyl]-2-(3-methyl-1-piperidinyl)-N-(1-naphthalenylmethyl)-]: the response (Table 3, HEK-293) was half-maximal at 39 nM (EC50).

For the setting “Table 3, HEK-293”, `CC1CCCN(c2ncc(C(=O)NCc3ccc(Cl)cc3Cl)c(C3(c4ccc(Cl)cc4)CCC3)n2)C1` (stereo not drawn) [Example 63, 5-pyrimidinecarboxamide, 4-[1-(4-chlorophenyl)cyclobutyl]-N-[(2,4-dichlorophenyl)methyl]-2-(3-methyl-1-piperidinyl)-] displayed an EC50 of 14 nM. This EC50 lies about 2.8-fold lower than the previous one.

For the compound `CC1CCN(c2ncc(C(=O)NCc3ccc(Cl)cc3Cl)c(C3(c4ccc(Cl)cc4)CCC3)n2)CC1` [Example 64, 5-pyrimidinecarboxamide, 4-[1-(4-chlorophenyl)cyclobutyl]-N-[(2,4-dichlorophenyl)methyl]-2-(4-methyl-1-piperidinyl)-], for the setting “Table 3, HEK-293”, the EC50 worked out at 34 nM.

`CC1CCC(Nc2ncc(C(=O)NCc3ccc(F)cc3F)c(C3(c4ccc(Cl)cc4)CCC3)n2)CC1` (stereo not drawn) [Example 65, 5-pyrimidinecarboxamide, 4-[1-(4-chlorophenyl)cyclobutyl]-N-[(2,4-difluorophenyl)methyl]-2-[(4-methylcyclohexyl)amino]-] registered an EC50 (Table 3, HEK-293) of 56 nM. This EC50 is about 1.6-fold higher than that of the compound before.

`CC1CCCN(c2ncc(C(=O)NCc3cc(F)cc(C(F)(F)F)c3)c(C3(c4ccc(Cl)cc4)CCC3)n2)C1` (stereo not drawn) [Example 66, 5-pyrimidinecarboxamide, 4-[1-(4-chlorophenyl)cyclobutyl]-N-[[3-fluoro-5-(trifluoromethyl)phenyl]methyl]-2-(3-methyl-1-piperidinyl)-]: the midpoint of the response (Table 3, HEK-293), the EC50, lay at 10 nM.

For the compound `CC1CCN(c2ncc(C(=O)NCc3cc(F)cc(C(F)(F)F)c3)c(C3(c4ccc(Cl)cc4)CCC3)n2)CC1` [Example 67, 5-pyrimidinecarboxamide, 4-[1-(4-chlorophenyl)cyclobutyl]-N-[[3-fluoro-5-(trifluoromethyl)phenyl]methyl]-2-(4-methyl-1-piperidinyl)-], the EC50 (Table 3, HEK-293) is 10 nM.

With `CC1CCCN(c2ncc(C(=O)NC(C)c3ccc(F)cc3)c(C3(c4ccc(Cl)cc4)CCC3)n2)C1` (stereo not drawn) [Example 68, 5-pyrimidinecarboxamide, 4-[1-(4-chlorophenyl)cyclobutyl]-N-[1-(4-fluorophenyl)ethyl]-2-(3-methyl-1-piperidinyl)-], it took 128 nM to reach a half-maximal effect (Table 3, HEK-293) (EC50).

`CN(Cc1ccccc1)C(=O)c1cnc(N2CCCC2)nc1C1(c2ccccc2)CCCC1` [Example 69, 5-pyrimidinecarboxamide, N-methyl-4-(1-phenylcyclopentyl)-N-(phenylmethyl)-2-(1-pyrrolidinyl)-]: under “hQ23 cells”, the EC50 turned out to be 778 nM. In other words, the sub-micromolar range.

With `CC1CCN(c2ncc(C(=O)N(C)Cc3ccccc3)c(C3(c4ccccc4)CCCC3)n2)CC1` [Example 70, 5-pyrimidinecarboxamide, N-methyl-2-(4-methyl-1-piperidinyl)-4-(1-phenylcyclopentyl)-N-(phenylmethyl)-], the EC50 (hQ23 cells) was found to be 270 nM.

For the compound `CN(Cc1ccccc1)C(=O)c1cnc(NC2CCCC2)nc1C1(c2ccccc2)CCCC1` [Example 71, 5-pyrimidinecarboxamide, 2-(cyclopentylamino)-N-methyl-4-(1-phenylcyclopentyl)-N-(phenylmethyl)-], where the note is “hQ23 cells”, the response was half-maximal at 718 nM (EC50).

With `CCN(CC)C(=O)c1cnc(NC2CCC(C)CC2)nc1C1(c2ccccc2)CCCC1` (stereo not drawn) [Example 72, 5-pyrimidinecarboxamide,N,N-diethyl-2-[(4-methylcyclohexyl)amino]-4-(1-phenylcyclopentyl)-], the EC50 (hQ23 cells) is 576 nM. The EC50 values of the last two compounds are within 1.5-fold of each other.
